Source: patent US20150191469A1, “COMPOUNDS AND METHODS FOR TREATING HIV” (priority 2012, published 2015)

The compounds below were run on HIV (assay: MT4 assay: antiviral HIV activity (cell protection, cell titer glo readout at 96 hours)). Conditions: Human immunodeficiency virus 1, MT4, 96 h, MT4 cells, cell titer glo readout at 96 hours, 10 point dose response; read-out: HIV MT4 Assay IC50.
Type: cell-based
Procedure, shortened: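 MT-4 cells infected with HIV, with inhibition readout by CellTiter-Glo luminescence at 96 h relative to no-compound control. Cytotoxicity measured in parallel under the same conditions. IC50 from a 10-point, 3-4-fold dilution series spanning >1000-fold, fitted with a four-parameter logistic equation.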

SMILES	IC50
Cc1nc2c(cc(/C=C/C(=O)NCCC(C)(C)C)n2C)c(-c2cc(F)c3c(c2C)CCCO3)c1[C@H](OC(C)(C)C)C(=O)O [Example 416]	26.7 nM
Cc1nc2c(cc(/C=C/C(=O)NCCO)n2C)c(-c2cc(F)c3c(c2C)CCCO3)c1[C@H](OC(C)(C)C)C(=O)O [Example 418]	3440 nM
Cc1ccc(-c2c([C@H](OC(C)(C)C)C(=O)O)c(C)nc3c2cc(-c2ccnc(-c4ccc5c(cnn5C)c4)c2)n3C)cc1 [Example 421]	7.6 nM
Cc1nc2c(cc(-c3ccnc(-c4ccc5c(cnn5C)c4)c3)n2C)c(-c2ccc3c(c2Cl)NCCO3)c1[C@H](OC(C)(C)C)C(=O)O [Example 422]	1.5 nM
Cc1nc2c(cc(-c3ccnc(-c4ccc5c(cnn5C)c4)c3)n2C)c(-c2ccccc2)c1[C@H](OC(C)(C)C)C(=O)O [Example 424]	46.4 nM
Cc1nc2c(cc(-c3ccnc(-c4ccc5c(cnn5C)c4)c3)n2C)c(-c2ccc3c(c2C)OCCO3)c1[C@H](OC(C)(C)C)C(=O)O [Example 427]	2.7 nM
Cc1nc2c(cc(-c3ccnc(N4CCCN(C5COC5)CC4)c3)n2C)c(-c2ccc3c(c2)CCCO3)c1[C@H](OC(C)(C)C)C(=O)O [Example 429]	75 nM
Cc1nc2c(cc(-c3ccnc(N4CCCN(C5COC5)CC4)c3)n2C)c(-c2ccc3c(c2C)CCCO3)c1[C@H](OC(C)(C)C)C(=O)O [Example 430]	16.3 nM
Cc1nc2c(cc(-c3ccnc(N4CCCN(C5COC5)CC4)c3)n2C)c(-c2ccc(Cl)cc2)c1[C@H](OC(C)(C)C)C(=O)O [Example 431]	143 nM
Cc1nc2c(cc(-c3ccnc(N4CCCN(C5COC5)CC4)c3)n2C)c(-c2cc(F)c3c(c2C)NCCO3)c1[C@H](OC(C)(C)C)C(=O)O [Example 433]	127 nM
Cc1nc2c(cc(-c3ccnc(N4CCCN(C5COC5)CC4)c3)n2C)c(-c2ccc3c(c2C)NCCO3)c1[C@H](OC(C)(C)C)C(=O)O [Example 434]	51.6 nM
Cc1nc2c(cc(-c3ccnc(-c4ccc5c(cnn5C)c4)c3)n2C)c(C2=CCC(C)(C)CC2)c1[C@H](OC(C)(C)C)C(=O)O [Example 436]	5.9 nM
CCO[C@H](C(=O)O)c1c(C)nc2c(cc(-c3ccnc(-c4ccc5c(cnn5C)c4)c3)n2C)c1-c1cc(F)c2c(c1C)CCCO2 [Example 438]	4.9 nM
CCO[C@H](C(=O)O)c1c(C)nc2c(cc(-c3nnc(N4CCN(C5CCOCC5)CC4)o3)n2C)c1-c1cc(F)c2c(c1C)CCCO2 [Example 440]	348 nM
Cc1nc2c(cc(-c3nnc(N4CCN(C5CCOCC5)CC4)o3)n2C)c(-c2cc(F)c3c(c2C)CCCO3)c1[C@H](OC(C)C)C(=O)O [Example 441]	160 nM
Cc1nc2c(cc(-c3nnc(-c4ccc5c(cnn5C)c4)o3)n2C)c(-c2cc(F)c3c(c2C)CCCO3)c1[C@H](OC(C)C)C(=O)O [Example 442]	5.1 nM

The remaining compounds from weak to strong by IC50, led by results:

IC50	SMILES
45000 nM	Cc1nc2c(cc(-c3ccnc(-c4ccc5c(cnn5C)c4)c3)n2C)c(C)c1[C@H](OC(C)(C)C)C(=O)O [Example 426]
3240 nM	Cc1nc2c(cc(/C=C/C(=O)NCCN3CCCC3=O)n2C)c(-c2cc(F)c3c(c2C)CCCO3)c1[C@H](OC(C)(C)C)C(=O)O [Example 419]
3010 nM	Cc1nc2c(cc(-c3ccnc(N4CCCN(C5COC5)CC4)c3)n2C)c(-c2ccccc2)c1[C@H](OC(C)(C)C)C(=O)O [Example 435]
200 nM	Cc1ccc(-c2c([C@H](OC(C)(C)C)C(=O)O)c(C)nc3c2cc(-c2ccnc(N4CCCN(C5COC5)CC4)c2)n3C)cc1 [Example 432]
38 nM	Cc1nc2c(cc(-c3ccnc(-c4ccc5c(cnn5C)c4)c3)n2C)c(-c2ccc(Cl)cc2O)c1[C@H](OC(C)(C)C)C(=O)O [Example 437]
34.5 nM	Cc1nc2c(cc(-c3ccnc(-c4ccc5c(cnn5C)c4)c3)n2C)c(C2=CCCCC2)c1[C@H](OC(C)(C)C)C(=O)O [Example 425]
33.7 nM	Cc1nc2c(cc(/C=C/C(=O)NCc3ccc(F)cc3)n2C)c(-c2cc(F)c3c(c2C)CCCO3)c1[C@H](OC(C)(C)C)C(=O)O [Example 417]
4.6 nM	Cc1nc2c(cc(-c3ccnc(-c4ccc5c(cnn5C)c4)c3)n2C)c(-c2ccc3c(c2)CCCO3)c1[C@H](OC(C)(C)C)C(=O)O [Example 428]
3 nM	CCO[C@H](C(=O)O)c1c(C)nc2c(cc(-c3nnc(-c4ccc5c(cnn5C)c4)o3)n2C)c1-c1cc(F)c2c(c1C)CCCO2 [Example 439]
1.8 nM	Cc1nc2c(cc(-c3ccnc(-c4ccc5c(cnn5C)c4)c3)n2C)c(-c2ccc3c(c2C)NCCO3)c1[C@H](OC(C)(C)C)C(=O)O [Example 423]
